Article PMC12043042, “Pseudo‐Ring Methodology to Control the Conformations of Macrocyclic Peptides” (Chemistry (Weinheim an Der Bergstrasse, Germany), 2025)
Entries after “also recorded” stand apart in the source; their conditions may differ. Where a SMILES comes first, the peptide text is derived from it.

How the values were obtained:
Type in all cases: physicochemical
[1] = Solubility in DMSO / organic solvents, determined visually; settings: room temperature, concentration of 10 mg/mL (ca. 10 mg/mL for NMR)
Excerpt: We considered building blocks 1–3 as Fmoc‐protected pseudo‐ring building blocks that could be implemented into the Fmoc SPPS approach. The building block 1 was readily prepared from 3‐methyl SA (see Supporting Information). […] The building block 3 was made from commercially available 7‐carboxyindole over seven steps. This procedure was scalable and required no chromatographic purifications (see Supporting Information). With 1 and 3 in hand, we turned our attention towards their application in SPPS. […] Through cyclization of the linear pentafluorophenol (PFP) ester at high dilution in DMF with DIPEA, cyclic peptides 4 (25% overall yield) and 5 (28% overall yield) were obtained from building block 1. The cyclic peptides 6 (17% overall yield) and 7 (21% overall yield) were prepared from building block 3 (Figure 3a,b). At the same time, we synthesized cyclic peptide controls devoid of the pseudo‐ring core through a conventional Fmoc SPPS strategy (Figure 3c) with a Gly‐Gly in place of the pseudo‐ring scaffold. Similarly, we prepared peptides 10 and 11, which represent depeptidized homodetic sequences that contain a backbone‐embedded arene that lacks the X─H pseudo‐ring hydrogen bond donor (Figure 3c). To draw further comparison between pseudo‐ring‐containing and regular heterocycle‐containing peptides, we attempted to synthesize the indole‐containing analogues of peptides 6 and 7 (see Supporting Information). […] During the preparation of cyclic peptides 4–11, we noticed that macrocycles devoid of a pseudo‐ring were frustratingly insoluble in all organic solvents as well as in water. As result, these peptides (8–11) were purified by hot trituration in methanol/water. The solubilities/lipophilicities of peptides 4–11 will be discussed later in this paper. […]
Reversed‐phase HPLC retention times have proven to be a useful metric in determining the permeability of peptide macrocycles, as longer retention times typically equate to lower aqueous solubility, lower polarity, and increased lipophilicity.^[ [34], [35], [36], [37] ^] We were keen to use these HPLC retention times as a tool to assess the modulation of lipophilicity of the pseudo‐ring‐containing macrocycles. At the same time, we were interested in collecting solubility measurements for each macrocycle in both organic solvents (DMSO) as well as in water by visually determining each macrocycle's solubility. Our analysis began with the proteinogenic peptides 8 and 9 (Figure 6a). From the NMR studies, we recognized that these peptides had extremely poor solubility in d6 ‐DMSO (Figure 6c). […] HPLC analysis of these peptides confirmed that proteinogenic sequences correspond to extremely polar peptides. On a 15‐min HPLC gradient (from 5% MeCN/H2O to 95% MeCN/H2O with 0.1% formic acid), macrocycles 8 and 9 had HPLC retention times of 5.3 min and 4.8 min, respectively. Both 8 and 9 contain similar hydrogen bonding patterns, which is reflected in their similar hydrophilicities and HPLC retention times. Similar results were obtained with peptides 10 and 11 (Figure 6a). […] We were keen to decipher whether the inclusion of either “open” or “closed” pseudo‐ring residues could lead to noticeable solubility and lipophilicity differences. […] This increase in […] likely results from the now exposed polar phenolic OH group paired with the disrupted IMHB networks that were present within the backbone of 4. […] With this in mind, we began analyzing our dicarbonyl‐containing macrocycles 6 and 7. […] Similarly, this marks the first instance in which we have been able to access a class of macrocycles with chameleonic behavior whereby we can reliably access both “open” and “closed” forms using pseudo‐rings. […] Unique to this series of macrocycles, the “open” pseudo‐ring macrocycle 7 is extremely hydrophilic.

[2] = Reversed-phase HPLC retention time as measure of lipophilicity; settings: 15-min gradient from 5% MeCN/H2O to 95% MeCN/H2O with 0.1% formic acid, longer time = more lipophilic
Excerpt: Reversed‐phase HPLC retention times have proven to be a useful metric in determining the permeability of peptide macrocycles, as longer retention times typically equate to lower aqueous solubility, lower polarity, and increased lipophilicity.^[ [34], [35], [36], [37] ^] We were keen to use these HPLC retention times as a tool to assess the modulation of lipophilicity of the pseudo‐ring‐containing macrocycles. At the same time, we were interested in collecting solubility measurements for each macrocycle in both organic solvents (DMSO) as well as in water by visually determining each macrocycle's solubility. Our analysis began with the proteinogenic peptides 8 and 9 (Figure 6a). From the NMR studies, we recognized that these peptides had extremely poor solubility in d6 ‐DMSO (Figure 6c). […] HPLC analysis of these peptides confirmed that proteinogenic sequences correspond to extremely polar peptides. On a 15‐min HPLC gradient (from 5% MeCN/H2O to 95% MeCN/H2O with 0.1% formic acid), macrocycles 8 and 9 had HPLC retention times of 5.3 min and 4.8 min, respectively. Both 8 and 9 contain similar hydrogen bonding patterns, which is reflected in their similar hydrophilicities and HPLC retention times. Similar results were obtained with peptides 10 and 11 (Figure 6a). […]

[3] = Solubility in water, determined visually; settings: concentration of 10 mg/mL
Excerpt: We considered building blocks 1–3 as Fmoc‐protected pseudo‐ring building blocks that could be implemented into the Fmoc SPPS approach. The building block 1 was readily prepared from 3‐methyl SA (see Supporting Information). […] The building block 3 was made from commercially available 7‐carboxyindole over seven steps. This procedure was scalable and required no chromatographic purifications (see Supporting Information). With 1 and 3 in hand, we turned our attention towards their application in SPPS. […] Through cyclization of the linear pentafluorophenol (PFP) ester at high dilution in DMF with DIPEA, cyclic peptides 4 (25% overall yield) and 5 (28% overall yield) were obtained from building block 1. The cyclic peptides 6 (17% overall yield) and 7 (21% overall yield) were prepared from building block 3 (Figure 3a,b). At the same time, we synthesized cyclic peptide controls devoid of the pseudo‐ring core through a conventional Fmoc SPPS strategy (Figure 3c) with a Gly‐Gly in place of the pseudo‐ring scaffold. Similarly, we prepared peptides 10 and 11, which represent depeptidized homodetic sequences that contain a backbone‐embedded arene that lacks the X─H pseudo‐ring hydrogen bond donor (Figure 3c). […]

Solubility in DMSO (d6-DMSO) [1]	HPLC retention time [2]	Solubility in H2O [3]	Compound
highly soluble			CC[C@H](C)[C@@H]1NC(=O)c2cccc(c2N)C(=O)CNC(=O)[C@H](Cc2ccccc2)NC(=O)CNC(=O)[C@H](C)NC1=O [compound 6] (HELM PEPTIDE1{A.G.F.[Nc1c(C(=O)CN[*:1])cccc1C(=O)[*:2]].I}$PEPTIDE1,PEPTIDE1,1:R1-5:R2$$$V2.0)
highly soluble		highly soluble	C[C@@H]1NC(=O)[C@@H]2CCCN2C(=O)c2cccc(c2N)C(=O)CNC(=O)[C@H](Cc2ccccc2)NC(=O)CNC1=O [compound 7] (HELM PEPTIDE1{A.G.F.[Nc1c(C(=O)CN[*:1])cccc1C(=O)[*:2]].P}$PEPTIDE1,PEPTIDE1,1:R1-5:R2$$$V2.0)
could not be fully solubilized			C[C@@H]1NC(=O)[C@@H]2CCCN2C(=O)CNC(=O)CNC(=O)[C@H](Cc2ccccc2)NC(=O)CNC1=O [compound 9] (HELM PEPTIDE1{A.G.F.G.G.P}$PEPTIDE1,PEPTIDE1,1:R1-6:R2$$$V2.0)

Further lines, the compound ahead of its results:

Compound	Solubility in DMSO (d6-DMSO) [1]	HPLC retention time [2]	Solubility in H2O [3]
CC[C@H](C)[C@@H]1NC(=O)c2cccc(c2O)CNC(=O)[C@H](Cc2ccccc2)NC(=O)CNC(=O)[C@H](C)NC1=O [compound 4] (HELM PEPTIDE1{A.G.F.[O=C(c1cccc(CN[*:1])c1O)[*:2]].I}$PEPTIDE1,PEPTIDE1,1:R1-5:R2$$$V2.0)	readily soluble; also recorded: much more soluble in DMSO than their non‐pseudo‐ring counterparts	7.7 min	
C[C@@H]1NC(=O)[C@@H]2CCCN2C(=O)c2cccc(c2O)CNC(=O)[C@H](Cc2ccccc2)NC(=O)CNC1=O [compound 5] (HELM PEPTIDE1{A.G.F.[O=C(c1cccc(CN[*:1])c1O)[*:2]].P}$PEPTIDE1,PEPTIDE1,1:R1-5:R2$$$V2.0)	readily soluble; also recorded: much more soluble in DMSO than their non‐pseudo‐ring counterparts		
CC[C@H](C)[C@@H]1NC(=O)CNC(=O)CNC(=O)[C@H](Cc2ccccc2)NC(=O)CNC(=O)[C@H](C)NC1=O [compound 8] (HELM PEPTIDE1{A.G.F.G.G.I}$PEPTIDE1,PEPTIDE1,1:R1-6:R2$$$V2.0)	could not be fully solubilized	5.3 min	
CC[C@H](C)[C@@H]1NC(=O)c2cccc(c2)CNC(=O)[C@H](Cc2ccccc2)NC(=O)CNC(=O)[C@H](C)NC1=O [compound 10] (HELM PEPTIDE1{[O=C(c1cccc(CN[*:1])c1)[*:2]].I.A.G.F}$PEPTIDE1,PEPTIDE1,1:R1-5:R2$$$V2.0)	poorly soluble		
C[C@@H]1NC(=O)[C@@H]2CCCN2C(=O)c2cccc(c2)CNC(=O)[C@H](Cc2ccccc2)NC(=O)CNC1=O [compound 11] (HELM PEPTIDE1{[O=C(c1cccc(CN[*:1])c1)[*:2]].P.A.G.F}$PEPTIDE1,PEPTIDE1,1:R1-5:R2$$$V2.0)	could be solubilized in d6 ‐DMSO at room temperature only after sonication		
